Legend:
[1] = system: Survivin, cIAP2, Mcl-1, XIAP; assay: Western blot, expression inhibition of anti-apoptotic proteins in FaDu cell line; format: cell-based; conditions: Western blot, 0, 10, 100 nM, 24 hours
cancer cells = conditions: cited from earlier work
DDX5 = DDX5 (Homo sapiens, UniProt P17844); assay: Western blot, DDX5 degradation in two cell lines (FaDu, A549); conditions: FaDu and A549, 0, 10, 100 nM
[2] = Lactone to carboxylate form conversion in pH 7.4 (RP-HPLC); format: physicochemical; conditions: for Conversion from lactone form (active) to carboxylate form (inactive) compared with reference compounds: pH 7.4, references exatecan, DXd, SN-38, FL118
[3] = over 21 days; bioconjugated to anti-HER2 antibody, DAR 8; cited from earlier work
FaDu cell line = assay: Cell viability assay (CellTiter-Glo), FaDu cell line; format: cell-based; conditions: FaDu (does not express ABCG2), 3-day incubation
Experimental: After 24 hours, the cells were treated with 100 μl of drugs at 9 concentrations (serial dilutions of 1/5 each from 1,000 nM). […] Also, a control group (drug concentration 0) that was not treated with drugs was prepared. Incubation at constant temperature (37° C., 5% CO2) was performed for 3 or 6 days. 100 ul of CellTiter-Glo reagent (using CellTiter-Glo® Luminescent Cell Viability Assay kit (Promega, G7571)) was added to each well and pipetted. After incubating at constant temperature (RT) for 10 minutes, luminescence was measured.
Cell viability assays were performed on MDA-MB-453 (HER2++) cell lines and FaDu (HER2+) cell lines using the same method as Example 2-2.

[4] = days 1 and 8 of a 21-day cycle, 25 patients; cited from earlier work
[5] = human, in vivo; cited from earlier work
[6] = mouse, in vivo, ip
[7] = system: MDA-MB-453 (HER2++) cell line; assay: Cell viability assay (CellTiter-Glo), MDA-MB-453 cell line; conditions: MDA-MB-453 and FaDu cell lines, 3 days
[8] = system: FaDu (Trop2+++) cell lines and Calu-6 (Trop2−−) cell lines; assay: In vitro cell cytotoxicity test of Sacituzumab-25-6 (6 days); conditions: free payload

DDX5, sequence (P17844 whole entry): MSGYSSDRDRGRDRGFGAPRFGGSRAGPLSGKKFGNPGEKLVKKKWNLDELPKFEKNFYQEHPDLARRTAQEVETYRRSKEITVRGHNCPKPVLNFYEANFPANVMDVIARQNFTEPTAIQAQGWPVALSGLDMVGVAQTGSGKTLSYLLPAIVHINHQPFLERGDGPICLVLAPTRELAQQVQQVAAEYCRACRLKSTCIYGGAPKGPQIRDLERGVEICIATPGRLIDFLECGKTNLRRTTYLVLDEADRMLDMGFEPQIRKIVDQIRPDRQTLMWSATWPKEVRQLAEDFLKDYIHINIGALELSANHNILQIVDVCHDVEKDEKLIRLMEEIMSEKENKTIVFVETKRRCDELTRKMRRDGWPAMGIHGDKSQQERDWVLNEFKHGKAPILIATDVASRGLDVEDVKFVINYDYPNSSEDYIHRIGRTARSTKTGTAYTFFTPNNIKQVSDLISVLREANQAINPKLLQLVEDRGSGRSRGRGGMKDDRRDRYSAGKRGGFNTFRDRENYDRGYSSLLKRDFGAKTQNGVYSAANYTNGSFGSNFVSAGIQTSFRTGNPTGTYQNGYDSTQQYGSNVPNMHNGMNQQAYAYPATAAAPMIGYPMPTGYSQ

CC[C@@]1(O)C(=O)OCc2c1cc1n(c2=O)Cc2cc3cc4c(cc3nc2-1)OCO4 [FL118]
Expression of anti-apoptotic proteins (Survivin, cIAP2, Mcl-1, XIAP) [1]: strongly inhibiting the expression of anti-apoptotic proteins
Cytotoxicity relative to SN-38 (times more potent) (cancer cells; various cancer cell lines): 5-10 times
DDX5 degradation (DDX5): superior to other substances in DDX5 degradation

CC[C@@]1(O)C(=O)OCc2c1cc1n(c2=O)Cc2c-1nc1cc(F)c(C)c3c1c2[C@@H](NC(=O)CO)CC3 [Dxd]
Degree of formation of the carboxylate form ([2]; pH 7.4, 37° C.): about 76.5%
Rate of conversion from the lactone form to the carboxylate form ([2]; pH 7.4, 37° C.): 0.6 % per minute
Activity in cancer cells relative to SN-38 (cancer cells): 10 times
Released in plasma [3]: 2.1%

CC[C@@]1(O)C(=O)OCc2c1cc1n(c2=O)Cc2c-1nc1cc3c(c4c1c2[C@@H](NC(=O)CO)CC4)OCO3 [PBX-7014]
Expression of anti-apoptotic proteins (Survivin, cIAP2, Mcl-1, XIAP) [1]: decrease in the expression of Survivin, cIAP2, Mcl-1, and XIAP as the concentration increased
Rate of conversion from the lactone form to the carboxylate form ([2]; pH 7.4, 37° C.): 0.8 % per minute
Conversion from lactone form (active) to carboxylate form (inactive) compared with reference compounds [2]: more rapidly and at a higher rate than other reference compounds

CC[C@@]1(O)C(=O)OCc2c1cc1n(c2=O)Cc2c-1nc1cc3c(c4c1c2[C@@H](NC(=O)[C@@H](O)C1CC1)CC4)OCO3 [PBX-7024]
Cell killing efficacy (IC50) (FaDu cell line): strong cell killing efficacy
Conversion from lactone form (active) to carboxylate form (inactive) compared with reference compounds [2]: more rapidly and at a higher rate than other reference compounds

CC[C@@]1(O)C(=O)OCc2c1cc1n(c2=O)Cc2c-1nc1cc(F)c(C)c3c1c2[C@@H](N)CC3 [Exatecan]
Expression of anti-apoptotic proteins (Survivin, cIAP2, Mcl-1, XIAP) [1]: strongly inhibits the expression of anti-apoptotic proteins

CC[C@@]1(O)C(=O)OCc2c1cc1n(c2=O)Cc2c-1nc1cc3c(c4c1c2[C@@H](N)CC4)OCO3 [PBX-7011, (1S,10S)-1-amino-10-ethyl-10-hydroxy-1,2,3,10,13,16-hexahydro-11H,14H-benzo[de][1,3]dioxolo[4,5-g]pyrano[3′,4′:6,7]indolizino[1,2-b]quinoline-11,14-dione]
Expression of anti-apoptotic proteins (Survivin, cIAP2, Mcl-1, XIAP) [1]: decrease in the expression of Survivin, cIAP2, Mcl-1, and XIAP as the concentration increased

sacituzumab govitecan
Dose-limiting toxicity [4]: neutropenia
Diarrhea, all-grade [5]: 65%
Febrile neutropenia [5]: 7%
Neutropenia, Grade≥3 [5]: 47%
Neutropenia, all-grade [5]: 61%
Neutropenic colitis [5]: 0.5%

CC[C@@]1(O)C(=O)OCc2c1cc1n(c2=O)Cc2c-1nc1cc3c(c4c1c2[C@@H](NC(=O)[C@@H](C)O)CC4)OCO3 [PBX-7016]
Expression of anti-apoptotic proteins (Survivin, cIAP2, Mcl-1, XIAP) [1]: decrease in the expression of Survivin, cIAP2, Mcl-1, and XIAP as the concentration increased
Rate of conversion from the lactone form to the carboxylate form ([2]; pH 7.4, 37° C.): 0.8 % per minute
Conversion from lactone form (active) to carboxylate form (inactive) compared with reference compounds [2]: more rapidly and at a higher rate than other reference compounds
Clearance from the blood [6]: cleared from the blood very quickly
IC50 level compared with Dxd [7]: equivalent to or higher than Dxd
Cell membrane penetration of non-target cells / cell death [8]: can penetrate the cell membrane of non-target cells
DDX5 degradation (DDX5): inhibited DDX5 in a concentration-dependent manner

CCc1c2c(nc3ccc(O)cc13)-c1cc3c(c(=O)n1C2)COC(=O)[C@]3(O)CC [SN-38]
IC50 values (cancer cells; several cell lines): nanomolar range

Source: patent publication US20260007760A1, “CAMPTOTHECIN DERIVATIVES THAT BIND TO DDX5 PROTEIN AND PRODRUGS THEREOF” (priority 2022, published 2026)
